According to US6900338B1, “Scavenger compounds” (Yissum Research Development Company of the Hebrew …, priority 1998, dated 2005):

Columns and labels:
[1] = tested on: vascular (aortic) guanylyl cyclase activity; assay: Prevention of nitrate tolerance: aortic cGMP after continuous NTG infusion, with or without the compounds; type: in vivo, rat; settings: for tolerance development to NTG / NO-donors (result in words): co-administration with nitrates
Method: (§1) • a) Acute effects: Rats (Spargue-Dawely) weighing 300-400 g were treated with an intravenous (i.v.) bolus dose of 2 mg nitroglycerin (NTG) before and after pre-treatment with the compounds (50 mg/kg) administered intraperitoneally. Compounds 1 and 2 from FIG. 1, compounds 9 and 10 from FIG. 2, compounds 17 and 18 from FIG. 3, compounds 25 a nd 26 from FIG. 4 were dissolved in a mixture of ethanol:propylene glycol:water (1:1:1) and administered in 1 ml intraperitoneally one hour before NTG administration. One minute after the NTG administration, the rats were sacrificed by decapitation and the aorta was removed quickly, immersed in a phosphate buffer solution containing 20 mM EDTA and immediately frozen in liquid nitrogen add stored at −70° until analyzed. Next day, the tissue were analyzed for their cGMP content. After thawing, tissue were weighed and homogenized in EDTA-phosphate buffer, centrifuged and the super collected into another tube. The pellet was washed with 1 ml buffer, vortex-mixed, centrifuged and the supernatant added to the second tube. 2 ml of acetonitrile were added to the tube containing the combined extracts and the tube vortex-mixed, centrifuged and the supernatant collected to another clean tube. The aqueous-acetonitrile solution in this latter tube was evaporated to dryness and the reside dissolved in assay buffer. The cGMP content of the solution was determined using a radioimmunoassay (RIA-Amersham) as previously reported by us.
Similar significant increases were also obtained when pre-treatment was performed with other compounds (see above). • b) Prevention: Rat were administered a continuos infusion of NTG known to induce tolerance with or without concomitant administration of the compounds (the same tested for the acute effects). The compounds were administered either in continuos i.v. infusion or intraperitoneally in 4 separated doses (q 6 hours). The effects on vascular (aortic) guanylyl cyclase activity was then evaluated as described above for control rats.

[2] = tested on: tissue guanylyl cyclase response to nitrates (aortic cGMP); assay: Acute effects: aortic cGMP after NTG bolus, with or without pre-treatment with the compounds; type: in vivo, rat
Method: as §1, with “The aqueous-acetonitrile solution in this latter tube was evaporated to dryness and the reside dissolved in assay buffer.” left out, “us. […]” for “us.”

Compound | tolerance development to NTG / NO-donors (result in words) [1] | tissue guanylyl cyclase response to nitrates (result in words) ([2]; pre-treatment or co-administration with nitrate / NO donor) | cGMP ([1]; NTG-pretreatment: continuous NTG infusion known to induce tolerance, no compound, aorta) | cGMP ([2]; NTG alone, i.v. bolus 2 mg, aorta removed one minute after NTG)
O=C(O)CCCCC1CCSS1 (centres unmarked) [LA, 1,2-dithiolane-3-valeric acid] | retards tolerance development | enhances its activity |  | 
O=[N+]([O-])OCC(CO[N+](=O)[O-])O[N+](=O)[O-] [NTG, nitroglycerin] |  |  | 64 ± 9 pmol/g tissue | 175 ± 13 pmol/g tissue
lipoyl lipoate | prevents/retards tolerance development |  |  | 
